Some test systems named below: HCT-15; M14; MDA-MB-231; HCT-116; SN12C; RXF 393; SR; NCI-H23; CCRF-CEM; K562; TK-10; HL-60; Hs-578T; COLO 205; T47D; SK-MEL-5; 786-0; SNB-75; IGROV-1; SNB-19.
Holding throughout (experiment): DTP human tumour cell line panel, 48 h

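All cell lines were grown in 96-well plates and treated with compound for 48 hours. Here, GI50 denotes the concentration required for 50% inhibition of growth.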 Calls of active or inactive are those of the source. Cut-off read from the data, not from the text of the source: active = GI50 up to about 1.1 µM and inactive = higher.

A word on the GI50: it is the concentration giving 50% growth inhibition. Regarding `CC(=O)C(=[N+]=[N-])C(=O)N1CCOC1=O`, the GI50 is over 10 µM in the experiment with HCT-15; > 10 µM (inactive) in the experiment on M14; > 10 µM (inactive) in the experiment with MDA-MB-231; > 10 µM (inactive) in the experiment with HCT-116; > 10 µM (inactive) in the experiment with SN12C; > 10 µM (inactive) with RXF 393. The GI50 in the experiment on SR, in the experiment with NCI-H23, in the experiment with CCRF-CEM, with K562, with TK-10 and in the experiment on HL-60 was > 10 µM (inactive) throughout. Further, the GI50 in the experiment with Hs-578T, in the experiment on COLO 205, in the experiment with T47D, with SK-MEL-5, with 786-0 and in the experiment with SNB-75 was > 10 µM (inactive) in each case. The GI50 with IGROV-1 and in the experiment with SNB-19 was > 10 µM (inactive) throughout.

Consider `CCOP(=O)(OCC)C(Nc1cccc(F)c1)c1ccccc1` (stereo not drawn), for which the GI50 in the experiment on HCT-15 was 44.4 µM; with M14, 69.5 µM (inactive); in the experiment on MDA-MB-231, 75.5 µM (inactive); in the experiment with HCT-116, 44.1 µM (inactive); with SN12C, 75.9 µM (inactive); in the experiment on RXF 393, 25.2 µM (inactive). Further, the GI50 with SR was 38.9 µM (inactive); with NCI-H23, > 100 µM (inactive); in the experiment on CCRF-CEM, 47.1 µM (inactive); in the experiment with K562, 34.8 µM (inactive); in the experiment with TK-10, > 100 µM (inactive); in the experiment on HL-60 it was 18.1 µM (inactive). For the same compound, the GI50 with Hs-578T was 35.9 µM (inactive); in the experiment on COLO 205, 34.4 µM (inactive); in the experiment with T47D, 22.7 µM (inactive); in the experiment with SK-MEL-5 it was 42.2 µM (inactive); in the experiment with 786-0 it was > 100 µM (inactive); in the experiment with SNB-75, 20.7 µM (inactive). The GI50 in the experiment on IGROV-1 and in the experiment with SNB-19 was > 100 µM (inactive) in each case.

For the compound `[O-][Cl+3]([O-])([O-])[O-].[O-][Cl+3]([O-])([O-])[O-].c1ccn2c(N3CCCC3)[n+]3c4ccccc4n4c(N5CCCC5)[n+]5ccccc5c4c3c2c1`, the GI50 in the experiment with HCT-15 is over 100 µM; in the experiment with M14, > 100 µM (inactive); in the experiment with MDA-MB-231, > 100 µM (inactive); in the experiment with HCT-116, > 100 µM (inactive); in the experiment on SN12C, 8 µM (inactive); in the experiment with RXF 393, 38.3 µM (inactive). For the same compound, the GI50 in the experiment with SR was 38.1 µM (inactive); with NCI-H23 it was 54.5 µM (inactive); in the experiment with CCRF-CEM, > 100 µM (inactive); with K562, 35.8 µM (inactive); in the experiment on TK-10, > 100 µM (inactive); with HL-60 it was > 100 µM (inactive). Also, the GI50 with Hs-578T was 33.4 µM (inactive); in the experiment on COLO 205, 20 µM (inactive); in the experiment with T47D, 43.5 µM (inactive); in the experiment with SK-MEL-5, 22.2 µM (inactive); in the experiment with 786-0 it was 27.6 µM (inactive); in the experiment with SNB-75, 18.7 µM (inactive). The GI50 in the experiment with IGROV-1 was 42.7 µM (inactive); in the experiment on SNB-19, 29.4 µM (inactive).

Turning to `CC(C)(CO)CNc1cc(=O)[nH]c(N)n1`, the GI50 is over 100 µM with HCT-15; > 100 µM (inactive) in the experiment with M14; > 100 µM (inactive) with MDA-MB-231; > 100 µM (inactive) in the experiment with HCT-116; > 100 µM (inactive) in the experiment on SN12C; > 100 µM (inactive) in the experiment on RXF 393. Further, the GI50 in the experiment on SR, with NCI-H23, in the experiment with CCRF-CEM, with K562, in the experiment on HL-60 and in the experiment on Hs-578T was > 100 µM (inactive) each time. Further, the GI50 in the experiment on COLO 205, in the experiment with T47D, with SK-MEL-5, in the experiment with 786-0, in the experiment with SNB-75 and in the experiment on IGROV-1 was > 100 µM (inactive) each time. For the same compound, the GI50 in the experiment with SNB-19 was > 100 µM (inactive).

As for `N#Cc1c(N)n(-c2nc3ccccc3s2)c(=O)c2cc([N+](=O)[O-])ccc12`, the GI50 with HCT-15 was 4.04 µM; in the experiment with M14 it was 23.2 µM (inactive); in the experiment on MDA-MB-231 it was 15.6 µM (inactive); with HCT-116, 4.44 µM (inactive); in the experiment with SN12C, 23.1 µM (inactive); in the experiment on RXF 393, 7.62 µM (inactive). Further, the GI50 in the experiment on SR was 14.2 µM (inactive); in the experiment on NCI-H23 it was 9.38 µM (inactive); in the experiment on CCRF-CEM, 0.0453 µM (active); in the experiment on K562, 15.7 µM (inactive); in the experiment on TK-10 it was 23.6 µM (inactive); with HL-60 it was 7.74 µM (inactive). Further, the GI50 with Hs-578T was 9.16 µM (inactive); with T47D, 21.8 µM (inactive); with 786-0, 21.7 µM (inactive); with SNB-75 it was 14.9 µM (inactive); with SNB-19, 17.7 µM (inactive).

Regarding `CC(=O)Nc1ncc2c(n1)-c1ccccc1OC2c1ccccc1` (stereo not drawn), the GI50 was over 100 µM in the experiment on HCT-15; > 100 µM (inactive) in the experiment on M14; 21.7 µM (inactive) in the experiment on MDA-MB-231; 80.9 µM (inactive) with HCT-116; 87.9 µM (inactive) in the experiment with SN12C; 17.1 µM (inactive) in the experiment on RXF 393. Also, the GI50 in the experiment on SR was > 100 µM (inactive); with NCI-H23, 26.1 µM (inactive); in the experiment with CCRF-CEM, > 100 µM (inactive); in the experiment on TK-10 it was 28.7 µM (inactive); in the experiment on HL-60 it was > 100 µM (inactive); with Hs-578T, 6.89 µM (inactive). Moreover, the GI50 was > 100 µM (inactive) with COLO 205; 24.7 µM (inactive) in the experiment on T47D; > 100 µM (inactive) with SK-MEL-5; 12.4 µM (inactive) in the experiment on 786-0; 14.1 µM (inactive) in the experiment with SNB-75; 46.5 µM (inactive) in the experiment on IGROV-1. For the same compound, the GI50 in the experiment on SNB-19 was 20.8 µM (inactive).

With `CNc1nc(=S)[nH]c2sc3c(c12)CCCC3`, the GI50 with HCT-15 is over 75 µM; in the experiment with MDA-MB-231 it was > 75 µM (inactive); in the experiment on HCT-116, > 75 µM (inactive); with SN12C, > 75 µM (inactive); in the experiment with RXF 393, > 75 µM (inactive); in the experiment with SR it was > 75 µM (inactive). The GI50 with NCI-H23, in the experiment on K562, with TK-10, with HL-60, in the experiment on Hs-578T and with COLO 205 was > 75 µM (inactive) throughout. Further, the GI50 in the experiment on T47D, in the experiment with SK-MEL-5, in the experiment with 786-0, in the experiment with SNB-75, with IGROV-1 and in the experiment with SNB-19 was > 75 µM (inactive) each time.

`Nc1ccccc1CC(O)C(=O)O` (stereo not drawn): the GI50 was over 100 µM in the experiment with HCT-15; > 100 µM (inactive) in the experiment with M14; > 100 µM (inactive) with MDA-MB-231; > 100 µM (inactive) in the experiment with HCT-116; > 100 µM (inactive) with SN12C; > 100 µM (inactive) with RXF 393. For the same compound, the GI50 in the experiment with SR, in the experiment with NCI-H23, in the experiment with CCRF-CEM, in the experiment with K562, in the experiment with TK-10 and in the experiment with HL-60 was > 100 µM (inactive) throughout. For the same compound, the GI50 in the experiment on Hs-578T, with COLO 205, in the experiment with T47D, in the experiment on SK-MEL-5, with 786-0 and with SNB-75 was > 100 µM (inactive) each time. In the experiment with SNB-19, the GI50 was > 100 µM (inactive).

Consider `[N-]=[N+]=Nc1c(-c2ccccc2)c(=O)n(-c2ccccc2)c2ccccc12`, for which the concentration for 50% growth inhibition (GI50) with HCT-15 was 38.2 µM; with M14 it was 62.2 µM (inactive); with MDA-MB-231 it was 74.3 µM (inactive); in the experiment with HCT-116 it was 34.7 µM (inactive); with SN12C, 60.8 µM (inactive); with RXF 393, 45.7 µM (inactive). Besides, the GI50 with SR is > 100 µM (inactive); with NCI-H23, 80.5 µM (inactive); with CCRF-CEM, > 100 µM (inactive); in the experiment on K562, > 100 µM (inactive); with TK-10 it was > 100 µM (inactive); in the experiment on HL-60 it was > 100 µM (inactive). Further, the GI50 in the experiment with Hs-578T is 56.9 µM (inactive); in the experiment with COLO 205 it was 62.1 µM (inactive); in the experiment with T47D, 24.6 µM (inactive); with 786-0 it was > 100 µM (inactive); in the experiment with SNB-75, 36.4 µM (inactive); in the experiment with IGROV-1, > 100 µM (inactive).

Take `COC(=O)c1c2c(cc3c1CC1(Cc4cc5c(cc4C1)CCCC5)C3)CCCC2`: the GI50 is over 100 µM in the experiment with HCT-15; > 100 µM (inactive) in the experiment with M14; > 100 µM (inactive) with MDA-MB-231; 15.3 µM (inactive) with HCT-116; > 100 µM (inactive) in the experiment with SN12C; 25.8 µM (inactive) in the experiment on RXF 393. Also, the GI50 in the experiment on SR is 27.5 µM (inactive); in the experiment on NCI-H23, > 100 µM (inactive); in the experiment on CCRF-CEM, 12 µM (inactive); in the experiment with K562, > 100 µM (inactive); with TK-10, > 100 µM (inactive); with HL-60, 80.4 µM (inactive). Also, the GI50 was > 100 µM (inactive) in the experiment with Hs-578T; > 100 µM (inactive) in the experiment on COLO 205; > 100 µM (inactive) with T47D; > 100 µM (inactive) with SK-MEL-5; > 100 µM (inactive) with 786-0; 0.155 µM (active) in the experiment with SNB-75. Further, the GI50 with IGROV-1 is > 100 µM (inactive).

As to `CCCCN1C(=O)c2c(-c3sccc3N)sc(-c3sccc3N)c2C1=O`, the GI50 is over 34.9 µM with HCT-15; 8.38 µM (inactive) in the experiment on M14; 30.8 µM (inactive) in the experiment with MDA-MB-231; 21.7 µM (inactive) in the experiment with HCT-116; 19 µM (inactive) with SN12C; 12.6 µM (inactive) with RXF 393. For the same compound, the GI50 is 1.98 µM (inactive) in the experiment on SR; 28 µM (inactive) with NCI-H23; 4.05 µM (inactive) with CCRF-CEM; 16.3 µM (inactive) in the experiment with K562; 22.3 µM (inactive) in the experiment on TK-10; 16.9 µM (inactive) in the experiment on Hs-578T. Also, the GI50 in the experiment with COLO 205 was 15.4 µM (inactive); in the experiment on T47D, 14.2 µM (inactive); in the experiment on SK-MEL-5 it was 29.8 µM (inactive); in the experiment with 786-0 it was 7.85 µM (inactive); in the experiment with SNB-75, 10.4 µM (inactive); with IGROV-1 it was 23 µM (inactive). For the same compound, the GI50 in the experiment with SNB-19 is 18.9 µM (inactive).

The record behind these values is ChEMBL document CHEMBL1201862, “PubChem BioAssay data set” (2004).
